Our source for the GI50 and TGI values is PubChem BioAssay (NCI).

Some test systems named below: 786-0 renal; A498 renal; HT29 colon; NCI-H460 lung; RPMI-8226 leukemia; SF-539 CNS; SK-MEL-28 melanoma; T-47D breast; UACC-257 melanoma; UACC-62 melanoma.
Assay in all cases: growth of human tumour cells (NCI), 48 h

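How tested: cells in 96-well plates exposed to compound for 48 hours at five concentrations. GI50: concentration for 50% inhibition of growth. TGI: total growth inhibition.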

For the molecule `COc1ccc(C(SCC(N)C(=O)O)(c2ccccc2)c2ccccc2)cc1` (stereo not drawn), the GI50 is 0.209 µM with 786-0 renal; 20.8 µM with A498 renal; 0.429 µM in the test with HT29 colon; 0.23 µM with NCI-H460 lung; 0.0419 µM with RPMI-8226 leukemia; 0.0721 µM in the test with SF-539 CNS. In addition, the GI50 with SK-MEL-28 melanoma is 3.12 µM; with T-47D breast, 0.409 µM; in the test with UACC-257 melanoma it was 26.3 µM; with UACC-62 melanoma it was 0.171 µM. Also, the TGI was > 84.6 µM in the test with A498 renal; > 100 µM in the test with HT29 colon; > 41.9 µM in the test with NCI-H460 lung; > 56.5 µM in the test with RPMI-8226 leukemia; 15.1 µM with SF-539 CNS; > 100 µM in the test with SK-MEL-28 melanoma. In addition, the figures for the TGI in the test on T-47D breast, in the test with UACC-257 melanoma and in the test on UACC-62 melanoma were > 100 µM, > 100 µM and > 56.7 µM, respectively.
As for `O=C(CN(/C=C/C(=O)C(F)(F)F)c1ccc(Cl)cc1)c1ccccc1`, the GI50 is 13.5 µM in the test with 786-0 renal; 22 µM with A498 renal; 25.8 µM in the test on HT29 colon; 52.9 µM in the test with NCI-H460 lung; 12.9 µM with RPMI-8226 leukemia; 13.1 µM in the test with SF-539 CNS. The GI50 in the test with SK-MEL-28 melanoma is 17.3 µM; in the test on T-47D breast, 4.08 µM; in the test on UACC-257 melanoma, 14.5 µM; in the test on UACC-62 melanoma, 11.7 µM. The TGI in the test with 786-0 renal was 31.3 µM; with A498 renal it was 43.1 µM; in the test with HT29 colon, > 100 µM; in the test on NCI-H460 lung, > 100 µM; in the test on RPMI-8226 leukemia, 89.3 µM; in the test on SF-539 CNS, 27.8 µM. The TGI was 37.5 µM in the test on SK-MEL-28 melanoma, > 100 µM in the test with T-47D breast, 34.9 µM in the test on UACC-257 melanoma and 26.4 µM in the test with UACC-62 melanoma.
Consider `O=C1c2ccccc2S(=O)(=O)N1CSC(=S)N1CCCCC1`, for which the GI50 in the test on 786-0 renal was > 100 µM; in the test with A498 renal, > 100 µM; with HT29 colon, > 29.2 µM; in the test with NCI-H460 lung, 5.5 µM; in the test with RPMI-8226 leukemia it was 0.205 µM; in the test with SF-539 CNS, > 100 µM. Further, the GI50 with SK-MEL-28 melanoma, in the test on T-47D breast and with UACC-257 melanoma was > 100 µM each time. In addition, the TGI in the test on 786-0 renal was > 100 µM; in the test with A498 renal it was > 100 µM; with HT29 colon it was > 100 µM; in the test on NCI-H460 lung, > 100 µM; in the test on RPMI-8226 leukemia, 0.607 µM; in the test on SF-539 CNS it was > 100 µM. The TGI is > 100 µM in the test with SK-MEL-28 melanoma, > 100 µM in the test with T-47D breast, > 100 µM in the test on UACC-257 melanoma and > 57.3 µM with UACC-62 melanoma.
As for `COc1cc(OC)c(/C=C\c2ccnc3ccccc23)c(OC)c1`, the TGI in the test on 786-0 renal came out at 17.8 µM; in the test on A498 renal, 9.87 µM; in the test with HT29 colon, 11.8 µM; in the test with NCI-H460 lung, 14.2 µM; with RPMI-8226 leukemia, 13 µM; with SF-539 CNS it was 12.4 µM. The TGI in the test on SK-MEL-28 melanoma worked out at 17.9 µM; in the test on T-47D breast it was 15.6 µM; with UACC-257 melanoma, 17.8 µM; with UACC-62 melanoma, 14.6 µM.
In the case of `CC(=O)c1cc(C(=O)c2ccc3c(c2)Sc2ccccc2N3)c2c(C)cc(C)cn12`, the GI50 with 786-0 renal is 0.465 µM; in the test on A498 renal, 0.0765 µM; in the test on HT29 colon it was 0.315 µM; in the test on NCI-H460 lung, 0.311 µM; in the test with RPMI-8226 leukemia it was 0.361 µM; in the test with SF-539 CNS, 0.185 µM. Further, the GI50 with SK-MEL-28 melanoma was 3.64 µM; in the test with T-47D breast, 12.8 µM; in the test with UACC-257 melanoma it was 2.04 µM; in the test with UACC-62 melanoma it was 0.254 µM. Besides, the TGI in the test with 786-0 renal is > 21.5 µM; with A498 renal, 0.686 µM; with HT29 colon, 0.962 µM; in the test with RPMI-8226 leukemia, > 27.9 µM; in the test with SF-539 CNS it was 0.535 µM; in the test on SK-MEL-28 melanoma, > 100 µM. Moreover, the TGI in the test with T-47D breast, in the test with UACC-257 melanoma and in the test on UACC-62 melanoma was > 100 µM throughout.
On to `COc1ccc2cc(-c3cc4c(oc3=O)-c3ccccc3OC4O)c(=O)oc2c1` (stereo not drawn), for which the GI50 in the test on 786-0 renal is 25.4 µM; in the test on A498 renal it was 17.3 µM; in the test with HT29 colon, 17.1 µM; with NCI-H460 lung, 16.7 µM; in the test on RPMI-8226 leukemia, 13.4 µM; in the test with SF-539 CNS, 15.2 µM. Further, the GI50 in the test with SK-MEL-28 melanoma was 16.7 µM; with T-47D breast, 13 µM; in the test on UACC-257 melanoma it was 16.2 µM; in the test with UACC-62 melanoma, 16.2 µM. Moreover, the TGI in the test with 786-0 renal amounted to 41.5 µM; in the test with A498 renal it was 33.5 µM; in the test with HT29 colon, 31.5 µM; in the test on NCI-H460 lung it was 34.7 µM; with RPMI-8226 leukemia, 58.7 µM; in the test on SF-539 CNS it was 29.2 µM. For the same molecule, the TGI was 32.2 µM in the test with SK-MEL-28 melanoma, 33.6 µM in the test with T-47D breast, 32.3 µM in the test with UACC-257 melanoma and 30.4 µM in the test on UACC-62 melanoma.
As for `NC(=O)c1ccc(NN=O)nc1`, the TGI with 786-0 renal, with A498 renal, with HT29 colon, with NCI-H460 lung, in the test with RPMI-8226 leukemia and in the test with SF-539 CNS was > 100 µM each time. Also, the TGI in the test on SK-MEL-28 melanoma, with T-47D breast, in the test with UACC-257 melanoma and in the test with UACC-62 melanoma was > 100 µM each time. Moreover, in the test with RPMI-8226 leukemia, the GI50 is > 100 µM.
For the molecule `C[C@]12CC[C@H](O)C[C@H]1CC[C@@H]1[C@@H]2CC[C@]2(C)[C@@H](C3=CC(=O)OC3)[C@@H](O)C[C@]12O`, the TGI with 786-0 renal amounted to 2.36 µM; in the test with A498 renal, 9.07 µM; in the test with HT29 colon, 11 µM; with NCI-H460 lung, 1.72 µM; in the test on RPMI-8226 leukemia, 8.07 µM; in the test on SF-539 CNS it was 2.28 µM. For the same molecule, the TGI in the test with SK-MEL-28 melanoma is 25.6 µM; with T-47D breast it was > 40.7 µM; in the test on UACC-257 melanoma it was 5.46 µM; in the test on UACC-62 melanoma, 6.82 µM.
On to `COc1cc2nc(SCC(=O)Nc3cc(OC)c(OC)c(OC)c3)n(Cc3ccccc3)c(=O)c2cc1OC`, for which the GI50 in the test with 786-0 renal was 3.51 µM; in the test with A498 renal, 1.75 µM; in the test with HT29 colon it was 16.6 µM; with NCI-H460 lung, 6.72 µM; with RPMI-8226 leukemia it was > 100 µM; in the test with SF-539 CNS it was 2.37 µM. Further, the GI50 is 3.02 µM in the test with SK-MEL-28 melanoma, 6.57 µM in the test on T-47D breast, 3.55 µM in the test on UACC-257 melanoma and 2.35 µM in the test with UACC-62 melanoma. Moreover, the TGI is 17.6 µM in the test with 786-0 renal; 32.5 µM with A498 renal; 38.7 µM in the test on HT29 colon; > 100 µM with NCI-H460 lung; > 100 µM in the test on RPMI-8226 leukemia; 5.78 µM in the test on SF-539 CNS. Further, the TGI with SK-MEL-28 melanoma was 11.4 µM; in the test on T-47D breast, > 100 µM; with UACC-257 melanoma, > 100 µM; with UACC-62 melanoma, 6.82 µM.
